Results as given in patent publication US20240408042A1, “ORALLY DISINTEGRATING BACLOFEN COMPOSITIONS AND METHODS OF MAKING SAME” (Clinical Research Associates LLC, priority 2023, published 2024).

Assays:
[1] = Excipient solubility in HPLC method diluent; assay type: physicochemical; conditions: approximately 1 to 2 mg/mL
[2] = animal models; cited from earlier work
[3] = compared with S-baclofen; cited from earlier work

Completely Soluble in 85% 50 mM Potassium Phosphate, pH 3.0, 15% ACN [1] | Compound | other results
Yes | OC[C@H]1O[C@H](O[C@]2(CCl)O[C@H](CCl)[C@@H](O)[C@@H]2O)[C@H](O)[C@@H](O)[C@H]1Cl [Sucralose] | 
Yes | OC[C@@H](O)[C@@H](O)[C@H](O)[C@H](O)CO [Pearlitol 300DC, Mannitol] | 
 | NCC(CC(=O)O)c1ccc(Cl)cc1 (racemic) [Baclofen, (±)-4-Amino-3-(4-chlorophenyl) butanoic acid] | absorption following administration into the colon [2]: poorly absorbed
 | NC[C@H](CC(=O)O)c1ccc(Cl)cc1 (single isomer, unassigned) [R-baclofen] | potency in reducing obsessive-compulsive and repetitive behavior and audiogenic seizures [3]: more potent than S-baclofen
No | CCCCCCCCCCCCCCCCCCOC(=O)/C=C/C(=O)[O-].[Na+] [Pruv, Sodium Stearyl Fumarate] | 
